Source: patent US20260356851A1, “TRICYCLIC COMPOUNDS AND USES THEREOF” (HUTCHMED LIMITED, priority 2023, published 2026)
Where two headings read alike, the source gives them in different places.

Key:
Format in all cases: cell-based
[1] = molecular target: T1, pERK1/2 (Thr202/Tyr204), NCI-1H441 (KRAS G12V) (Homo sapiens, UniProt P01116, G12V); experiment: Assay of intracellular pERK1/2 (Thr202/Tyr204) phosphorylation in NCI-H441 cells (KRAS G12V)
T1 construct: pERK1/2 HTRF read-out
How it was run: (§1)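 Cells (10000-12000/well) exposed to 3-fold compound dilutions for 2 days at 37 °C, then lysed; pERK1/2 (Thr202/Tyr204) measured by HTRF with d2 and cryptate antibodies, 665/615 nm ratio.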

[2] = molecular target: T2, pERK1/2 (Thr202/Tyr204), NCI-1H358 (KRAS G12C) (Homo sapiens, UniProt P01116, G12C); experiment: Assay of intracellular pERK1/2 (Thr202/Tyr204) phosphorylation in NCI-H358 cells (KRAS G12C)
T2 construct: pERK1/2 HTRF read-out
How it was run: as §1

[3] = molecular target: T3, pERK1/2 (Thr202/Tyr204), PANC-1 (KRAS G121D) (Homo sapiens, UniProt P01116, G12D); experiment: Assay of intracellular pERK1/2 (Thr202/Tyr204) phosphorylation in PANC-1 cells (KRAS G12D)
T3 construct: pERK1/2 HTRF read-out
How it was run: as §1

[4] = pERK1/2, 2 days, read-out: NCI-H441 (KRAS G12V) IC50
[5] = pERK1/2, 2 days, read-out: NCI-H358 (KRAS G12C) IC50
[6] = pERK1/2, 2 days, read-out: PANC-1 (KRAS G12D) IC50

T1 sequence (P01116 1-188 isoform P01116-2 G12V): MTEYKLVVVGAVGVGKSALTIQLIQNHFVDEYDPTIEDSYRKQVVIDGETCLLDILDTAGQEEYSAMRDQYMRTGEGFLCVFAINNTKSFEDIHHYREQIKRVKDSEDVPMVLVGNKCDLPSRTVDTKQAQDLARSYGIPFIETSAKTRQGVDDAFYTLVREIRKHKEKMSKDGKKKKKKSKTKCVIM
T3 sequence (P01116 1-188 isoform P01116-2 G12D): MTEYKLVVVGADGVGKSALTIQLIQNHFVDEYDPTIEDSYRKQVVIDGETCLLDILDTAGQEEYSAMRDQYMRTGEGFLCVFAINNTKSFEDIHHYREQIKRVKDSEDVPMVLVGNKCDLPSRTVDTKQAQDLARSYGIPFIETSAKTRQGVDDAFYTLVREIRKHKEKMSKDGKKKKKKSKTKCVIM
T2 sequence (P01116 1-188 isoform P01116-2 G12C): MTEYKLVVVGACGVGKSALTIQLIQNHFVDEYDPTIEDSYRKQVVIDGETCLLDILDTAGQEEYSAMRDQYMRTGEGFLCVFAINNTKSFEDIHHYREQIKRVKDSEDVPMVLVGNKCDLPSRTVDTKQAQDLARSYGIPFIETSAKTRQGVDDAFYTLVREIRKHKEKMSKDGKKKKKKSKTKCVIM

SMILES | IC50 [1, 4] | IC50 [2, 5] | IC50 [3, 6] | IC50 ([1]; read-out: NCI-H441 (KRAS G12V) IC50, pERK1/2, 2 days) | IC50 ([2]; read-out: NCI-H358 (KRAS G12C) IC50, pERK1/2, 2 days) | IC50 ([3]; read-out: PANC-1 (KRAS G12D) IC50, pERK1/2, 2 days)
[2H]C([2H])(Oc1nc2c3c(nc(-c4cc(N)cc(C)c4C(F)(F)F)c(F)c3n1)OCCN2C(C)c1cccnc1N)[C@@H]1CCC([2H])([2H])N1C([2H])([2H])[2H] (single isomer, unassigned) [Compound 102, 3-((R or S)-1-(5-(5-amino-3-methyl-2-(trifluoromethyl)phenyl)-4-fluoro-2-(((S)-1-(methyl-d3)pyrrolidin-2-yl-5,5-d2)methoxy-d2)-8,9-dihydro-10H-7-oxa-1,3,6,10-tetraazacyclohepta[de]naphthalen-10-yl)ethyl)pyridin-2-amine] | 2 nM | 0.8 nM | 38 nM | – | – | –
[2H]C([2H])(Oc1nc2c3c(nc(-c4cc(O)cc(Cl)c4C4CC4)c(F)c3n1)OCCN2[C@H](C)c1cccnc1N)[C@@H]1C[C@@H](F)CN1C([2H])([2H])[2H] (single isomer, unassigned) [Compound 142, 3-(10-((R or S)-1-(2-aminopyridin-3-yl)ethyl)-4-fluoro-2-(((2S,4R)-4-fluoro-1-(methyl-d3)pyrrolidin-2-yl)methoxy-d2)-9,10-dihydro-8H-7-oxa-1,3,6,10-tetraazacyclohepta[de]naphthalen-5-yl)-5-chloro-4-cyclopropylphenyl] | > 100 nM | > 100 nM | > 100 nM | – | – | –
Cc1cc(N)cc(-c2nc3c4c(nc(OC[C@@H]5CC(F)(F)CN5C)nc4c2F)N(C(C)c2cccnc2N)CCO3)c1C(F)(F)F (stereo partly drawn) [Compound 70] | 2 nM | 2 nM | > 100 nM | – | – | –
CCc1c(F)ccc2cc(OC(=O)N(C)C)cc(-c3nc4c5c(nc(OC[C@@]67CCCN6C[C@H](F)C7)nc5c3F)N(C(C)c3cccnc3N)[C@@H](C)CO4)c12 (stereo partly drawn) [Compound 301] | – | – | – | 72 nM | 25 nM | 77 nM
[2H]C([2H])([2H])N1CCC[C@H]1COc1nc2c3c(nc(-c4cc(N)cc(C)c4C(F)(F)F)c(F)c3n1)OCCN2C(C)c1cccnc1N (single isomer, unassigned) [Compound 95, 3-((R or S)-1-(5-(5-amino-3-methyl-2-(trifluoromethyl)phenyl)-4-fluoro-2-(((S)-1-(methyl-d3)pyrrolidin-2-yl)methoxy)-8,9-dihydro-10H-7-oxa-1,3,6,10-tetraazacyclohepta[de]naphthalen-10-yl)ethyl)pyridin-2-amine] | 2 nM | 0.8 nM | 24 nM | – | – | –
CC(c1cccnc1N)N1CCOc2nc(-c3cc(N)cc(F)c3C(F)(F)F)c(F)c3nc(OC[C@@H]4CCCN4C)nc1c23 (single isomer, unassigned) [Compound 90, 3-((R or S)-1-(5-(5-amino-3-fluoro-2-(trifluoromethyl)phenyl)-4-fluoro-2-(((S)-1-methylpyrrolidin-2-yl)methoxy)-8,9-dihydro-10H-7-oxa-1,3,6,10-tetraazacyclohepta[de]naphthalen-10-yl)ethyl)pyridin-2-amine] | 6 nM | 2 nM | 91 nM | – | – | –
CC(c1cccnc1N)N1CCOc2nc(-c3cc(O)cc(F)c3C3CC3)c(F)c3nc(OC[C@@H]4CC(F)(F)CN4C)nc1c23 (single isomer, unassigned) [Compound 48, 3-(10-((R or S)-1-(2-aminopyridin-3-yl)ethyl)-2-(((S)-4,4-difluoro-1-methylpyrrolidin-2-yl)methoxy)-4-fluoro-9,10-dihydro-8H-7-oxa-1,3,6,10-tetraazacyclohepta[de]naphthalen-5-yl)-4-cyclopropyl-5-fluorophenol] | > 1000 nM | > 1000 nM | > 1000 nM | – | – | –
Cc1cc(N)cc(-c2nc3c4c(nc(OCC5CCOCC5)nc4c2F)N([C@@H](C)c2cccnc2N)CCO3)c1C(F)(F)F (single isomer, unassigned) [Compound 118, (R or S)-3-(1-(5-(5-amino-3-methyl-2-(trifluoromethyl)phenyl)-4-fluoro-2-((tetrahydro-2H-pyran-4-yl)methoxy)-8,9-dihydro-10H-7-oxa-1,3,6,10-tetraazacyclohepta[de]napthalen-10-yl)ethyl)pyridin-2-amine] | > 100 nM | > 100 nM | > 100 nM | – | – | –
Cc1cc(N)cc(-c2nc3c4c(nc(OC[C@@H]5CCCN5)nc4c2F)N(C(C)c2cccnc2N)CCO3)c1C(F)(F)F (single isomer, unassigned) [Compound 106] | > 100 nM | > 100 nM | > 100 nM | – | – | –

More lines, main results first:

IC50 [1, 4] | IC50 [2, 5] | IC50 [3, 6] | SMILES | IC50 ([1]; read-out: NCI-H441 (KRAS G12V) IC50, pERK1/2, 2 days) | IC50 ([2]; read-out: NCI-H358 (KRAS G12C) IC50, pERK1/2, 2 days) | IC50 ([3]; read-out: PANC-1 (KRAS G12D) IC50, pERK1/2, 2 days)
49 nM | 23 nM | > 100 nM | CC(c1cccnc1N)N1c2nc(OC[C@@]34CCCN3C[C@H](F)C4)nc3c(F)c(-c4c(C(F)(F)F)ccc5c4CCCN5)nc(c23)OC[C@@H]1C (single isomer, unassigned; diastereomer 1) [Compound 338, (*)3-(1-((5R or 5S,9S)-4-fluoro-2-(((2R,7aS)-2-fluorotetrahydro-1H-pyrrolizin-7a(5H)-yl)methoxy)-9-methyl-5-(6-(trifluoromethyl)-1,2,3,4-tetrahydroquinolin-5-yl)-8,9-dihydro-10H-7-oxa-1,3,6,10-tetraazacyclohepta[de]naphthalen-10-yl)ethyl)pyridin-2-amine (diastereomer 1)] | – | – | –
4 nM | 2 nM | 39 nM | Cc1cc(F)c2sc(N)nc2c1-c1nc2c3c(nc(OC[C@@]45CCCN4C[C@H](F)C5)nc3c1F)N(C(C)c1cccnc1N)[C@@H](C)CO2 (stereo partly drawn) [Compound 340] | – | – | –
> 100 nM | > 100 nM | > 100 nM | C#Cc1c(F)ccc2cc(O)cc(-c3nc4c5c(nc(OC[C@@]67CCCN6C[C@H](F)C7)nc5c3F)N(C3CC3)CCO4)c12 [Compound 197] | – | – | –
36 nM | 21 nM | > 100 nM | CCC(c1cccnc1N)N1CCOc2nc(-c3cc(N)c(F)c(Cl)c3C(F)(F)F)c(F)c3nc(OC[C@@]45CCCN4C[C@H](F)C5)nc1c23 (single isomer, unassigned) [Compound 215, 3-((R or S)-1-(5-(5-amino-3-chloro-4-fluoro-2-(trifluoromethyl)phenyl)-4-fluoro-2-(((2R,7aS)-2-fluorotetrahydro-1H-pyrrolizin-7a(5H)-yl)methoxy)-8,9-dihydro-10H-7-oxa-1,3,6,10-tetraazacyclohepta[de]naphthalen-10-yl)propyl)pyridin-2-amine] | – | – | –
40 nM | 14 nM | 35 nM | Cc1c(F)c(N)cc(-c2nc3c4c(nc(OC[C@@]56CCCN5C[C@H](F)C6)nc4c2F)N(C(C)c2cccnc2N)[C@@H](C)CO3)c1C(F)(F)F (single isomer, unassigned) [Compound 263, 3-((R or S)-1-((S)-5-(5-amino-4-fluoro-3-methyl-2-(trifluoromethyl)phenyl)-4-fluoro-2-(((2R,7aS)-2-fluorotetrahydro-1H-pyrrolizin-7a(5H)-yl)methoxy)-9-methyl-8,9-dihydro-10H-7-oxa-1,3,6,10-tetraazacyclohepta[de]naphthalen-10-yl)ethyl)pyridin-2-amine] | – | – | –
4 nM | 2 nM | 6 nM | CC(c1cccnc1N)N1c2nc(OC[C@@]34CCCN3C[C@H](F)C4)nc3c(F)c(-c4cc(O)cc(Cl)c4C(F)(F)F)nc(c23)OC[C@@H]1C (stereo partly drawn) [Compound 315] | – | – | –
> 100 nM | 55 nM | > 100 nM | Cc1cc(N)cc(-c2nc3c4c(nc(OC[C@@H]5C[C@@H](F)CN5C)nc4c2F)N(C(C)c2cccnc2N)[C@@H](C)CO3)c1C(F)(F)F (single isomer, unassigned) [Compound 283, 3-((R or S)-1-((S)-5-(5-amino-3-methyl-2-(trifluoromethyl)phenyl)-4-fluoro-2-(((2S,4R)-4-fluoro-1-methylpyrrolidin-2-yl)methoxy)-9-methyl-8,9-dihydro-10H-7-oxa-1,3,6,10-tetraazacyclohepta[de]naphthalen-10-yl)ethyl)pyridin-2-amine] | – | – | –
1 nM | < 0.457 nM | 6 nM | Cc1c(C(F)(F)F)c(-c2nc3c4c(nc(OCC5(CN(C)C)CC5)nc4c2F)N(C(C)c2cccnc2N)[C@@H](C)CO3)c2cn[nH]c2c1F (stereo partly drawn) [Compound 396] | – | – | –
5 nM | 3 nM | 2 nM | Cc1c(C(F)(F)F)c(-c2nc3c4c(nc(OC[C@@]56CCCN5C[C@H](F)C6)nc4c2F)N(C(C)c2cccnc2N)[C@@H](C)CO3)c2c(Cl)n[nH]c2c1F (single isomer, unassigned) [Compound 382] | – | – | –
5 nM | 2 nM | 17 nM | CC[C@H]1COc2nc(-c3c(C(F)(F)F)c(C)cc4[nH]ncc34)c(F)c3nc(OC[C@@]45CCCN4C[C@H](F)C5)nc(c23)N1C(C)c1cccnc1N (stereo partly drawn) [Compound 387] | – | – | –
0.8 nM | 0.4 nM | 0.3 nM | Cc1cc2[nH]ncc2c(-c2nc3c4c(nc(OC[C@@]56CCCN5C[C@H](F)C6)nc4c2F)N(C(C)c2cccnc2N)[C@@H](C)CO3)c1C1CC1 (stereo partly drawn) [Compound 317] | – | – | –
